Reference: patent publication US10344035B2, “Salt of quinolone compound, polymorphs thereof, preparation method therefor, composition, and applications” (SHANGHAI PHARMACEUTICALS HOLDING CO., LTD., priority 2015, dated 2019)
Where “and” joins values, the source holds several entries; their conditions need not be identical. Equal entries are not always repeated.

Columns and labels:
in vivo = settings: SD, rat, in vivo, po, 20 umol/kg
Procedure: All stock solutions of the test compound were sonicated and heated to become clarified and formulated to a 25 mM solution with DMSO.
All samples were dosed at 20 μmol/kg.
The blood sample was centrifuged at 8000 rpm for 5 min, the plasma was collected in a centrifuge tube and stored at −20° C. for use.
Treatment of the plasma sample: the proteins in 50 μL plasma sample were precipitated with 200 μL acetonitrile containing internal standard (Propranolol (PRO), 2.5 ng/mL). Vortexed for 10 min, centrifuged at 6000 g for 10 min, the supernatant was taken and 5-fold diluted with the mobile phase, and the supernatant was injected into a 96-well plate for analysis.
flow rate: 0.3 mL/min; injection volume: 2 μL; column temperature 45° C. The gradient elution procedure was: […]
The ion source was an electrospray ionization source (Turbo Ionspray, ESI); the electrospray voltage was 5500V; the temperature was 500° C.; pressure of ion source gas 1 (N2) was 50 psi; pressure of ion source gas 2 (N2) was 50 psi; pressure of curtain gas (N2) 20 psi; pressure of collision gas (CAD) was Medium; scan time was 100 ms; positive ion mode detection; scan mode was multiple reaction monitoring (MRM), ion reaction and collision energy (CE) for quantitative analysis, declustering potential (DP) are shown in the following table: […]

[1] = Body weight change of tumor-bearing mice in LU2503 model; format: in vivo, BALB/c nude mice; settings: QD*21, 21th day
From the text: Tumor tissue was harvested from HuPrime® lung tumor xenograft model LU2503 (R11P6) tumor-bearing mice and cut into 2 to 3 mm diameter tumor blocks subcutaneously inoculated at the right anterior scapular of BALB/c nude mice. When the mean tumor volume reached approximately 139 mm^3, mice were randomly divided to […] based on tumor volume, 8 mice in each group, 4 mice per cage. The day of grouping was defined as day 0. Dosing started on day 0 and ended on day 20. The experiment ended on the 21st day. The experiment was divided into groups of crystal form A of SPH1772 ditartrate (0.3 mg/kg, 3 mg/kg and 30 mg/kg), positive control INC280 (30 mg/kg), positive control Crizotinib (30 mg/kg) and vehicle group, 8 mice in each group, intragastric administration once a day, lasting 21 days.

[2] = tested on: human hepatoma MHCC97H cell line; assay: Anti-tumor effect in MHCC97H xenograft model; format: in vivo, BALB/c nude mice; settings: for relative tumor volume (x ± S) / tumor volume (x ± S) / T/C / TGI (relative tumor inhibition rate): 25th day after dosing; for TGI (relative tumor inhibition rate): from relative tumor volume; for Tumor weight (x ± s) / TGI (tumor weight): 26th day after dosing; for TGI (tumor weight): from tumor weight
Procedure: BALB/c nude mice were subcutaneously inoculated with MHCC97H cells to develop human hepatocellular carcinoma subcutaneously transplanted tumor model. The experiment was divided into groups including crystal form A of SPH1772 ditartrate (0.05 mg/kg, 0.5 mg/kg and 5 mg/kg), positive control INC280 hydrochloride (5 mg/kg), and Vehicle control group, 10 mice in each group, intragastric administration once a day, lasting 21 days. The efficacy was according to the relative tumor inhibition rate (TGI) and tumor growth delay time, the safety was evaluated according to animal weight and death.
BALB/c nude mice, female, 7 to 9 weeks old (the age when mice were inoculated with tumor cells), weight 19.5 to 23.9 g, 75 animals. BALB/c nude mice were purchased from Shanghai Lingchang Biotechnology Co., Ltd., animal certificate number: 2013001816956. Rearing environment: SPF level.
MHCC97H (Zhongshan Hospital subsidiary to Fudan University) was cultured in DMEM containing 10% fetal bovine serum. MHCC97H cells were collected during exponential growth phase, the cells in PBS was re-suspended to a suitable concentration for subcutaneous tumor inoculation in mice.
0.2 mL 1×10^7 MHCC97H cells re-suspended in PBS and Matrigel (1:1) was subcutaneously inoculated to the right side of 75 mice. When the mean tumor volume reached 157 mm^3, mice were randomly grouped based on tumor volume. The formula for calculating the tumor volume was that long diameter×short diameter^2/2.
Relative tumor inhibition rate TGI (%): TGI=1−T/C (%). T/C % is the relative tumor proliferation rate, which is the percentage of the relative tumor volume or tumor weight in the treatment group to that of the control group at a certain time. T and C are respectively the relative tumor volume (RTV) or tumor weight (TW) of the treatment group and control group at a certain time.
The formula was as follows: T/C %=TRTV/CRTV*100% (TRTV: mean RTV in the treatment group; CRTV: mean RTV in the control group; RTV=Vt/V0, V0 was the tumor volume of the animal when grouped, and Vt was the tumor volume of the animal after treatment). Or T/C %=TTW/CTW×100% (TTW: mean tumor weight in the treatment group at the end of the experiment; CTW: mean tumor weight in the control group at the end of experiment).
1.5 h and 24 h after the last dose, blood and tumor were collected, the tumor was weighted, and photographs were taken.
All experimental results were expressed as mean tumor volume±SEM (mean standard error). Statistical analysis between different groups was performed on the best point of drug treatment (usually after the last dosing). The independent sample T test method was used to evaluate whether there was significant difference between the relative tumor volume and tumor weight in the treatment group to that of the control group. All data was analyzed by SPSS 18.0. p<0.05 was considered having significant differences.

c-Met kinase = c-Met kinase (Homo sapiens, UniProt P08581); assay: c-Met tyrosine kinase inhibition, HTRF kinase assay; settings: ATP concentration at Km
Procedure: The in vitro kinase assay uses Homogeneous Time-Resolved Fluorescence (HTRF) technology to screen the test compounds on the c-Met kinase at an ATP concentration of Km (wherein, Km represents the Michaelis constant, the unit is mol/L, which is the concentration of ATP at which the enzymatic reaction rate is half of the maximum reaction rate).
All samples were formulated to a 10^−2M stock solution using DMSO and stored in small quantities at −80° C. for use.
1, Preparing a 1× reaction buffer (the reaction buffer purchased was high-concentration, dilution was required when used, diluted to the final concentration required for the experiment, which was referred to as 1× reaction buffer.)
preparing 1× reaction buffer suitable for each kinase using 5× Enzymatic buffer in HTRF kinEASE-TK kit.
2, Preparing and transferring 5× compound (e.g. the final concentration of compound required for the experiment was 1 μm, then the concentration of the sample was first formulated to 5 μm, referred to as 5× compound.) […]

[3] = 0.05 mg/kg intragastric once a day
[4] = 0.5 mg/kg intragastric once a day
[5] = 5 mg/kg intragastric once a day

Sequence of c-Met kinase (P08581 956-1390 limits assumed): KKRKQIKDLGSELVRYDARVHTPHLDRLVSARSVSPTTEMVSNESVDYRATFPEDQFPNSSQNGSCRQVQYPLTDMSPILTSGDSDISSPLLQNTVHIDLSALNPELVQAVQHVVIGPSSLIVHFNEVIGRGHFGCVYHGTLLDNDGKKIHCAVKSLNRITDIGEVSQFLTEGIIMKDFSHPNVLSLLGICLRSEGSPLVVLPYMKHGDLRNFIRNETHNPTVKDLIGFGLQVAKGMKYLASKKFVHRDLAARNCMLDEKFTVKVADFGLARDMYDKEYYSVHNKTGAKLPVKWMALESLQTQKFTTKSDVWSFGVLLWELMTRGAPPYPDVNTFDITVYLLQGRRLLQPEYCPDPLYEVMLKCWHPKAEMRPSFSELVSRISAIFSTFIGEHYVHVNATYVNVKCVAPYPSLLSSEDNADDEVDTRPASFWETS

Q: For `Cn1cc(-c2cnc3ccc(Cn4nnc5ncc(-c6cnn(C)c6)nc54)cc3c2)cn1` [crystal form A of SPH1772 ditartrate], which AUCextra (in vivo) is on record?
A: 210.83 µM·min

Q: And the AUCtot (in vivo)?
A: 9012.96 µM·min

Q: What about the Clearance (in vivo) of the same molecule?
A: 2 mL/min/kg

Q: What about the Vz (in vivo) of the same molecule?
A: 0.760 L/kg

Q: And the Cmax (in vivo; Cmax)?
A: 16 µM

Q: And the MRT (in vivo; MRT)?
A: 7.89 h

Q: And the Tmax (in vivo; Tmax)?
A: 3.33 h

Q: What about the “weight change percentage of tumor-bearing mice” value (“weight change percentage” for short) ([1]; 0.3 mg/kg) of the same molecule?
A: −1.61%

Q: What about the “weight change percentage” value ([1]; 3 mg/kg) of the same molecule?
A: −1.88%

Q: What about the “weight change percentage” value ([1]; 30 mg/kg) of the same molecule?
A: −2.01%

Q: And the “relative tumor volume (x ± S)” value [2, 3]?
A: 3.03 ± 0.56

Q: And the “tumor volume (x ± S)” value [2, 3]?
A: 469 mm^3 and 469 ± 85 mm^3

Q: What about the T/C ([2]; 0.05 mg/kg) of the same molecule?
A: 26%

Q: And the “TGI (relative tumor inhibition rate)” value ([2]; 0.05 mg/kg)?
A: 74%

Q: What about the “Tumor weight (x ± s)” value ([2]; 0.05 mg/kg) of the same molecule?
A: 493 ± 71 mg

Q: And the “TGI (tumor weight)” value ([2]; 0.05 mg/kg)?
A: 69%

Q: And the “relative tumor volume (x ± S)” value [2, 4]?
A: 0.39 ± 0.03

Q: And the “tumor volume (x ± S)” value [2, 4]?
A: 60 mm^3 and 60 ± 5 mm^3

Q: What about the T/C ([2]; 0.5 mg/kg) of the same molecule?
A: 3%

Q: What about the “TGI (relative tumor inhibition rate)” value ([2]; 0.5 mg/kg) of the same molecule?
A: 97%

Q: And the “Tumor weight (x ± s)” value ([2]; 0.5 mg/kg)?
A: 48 ± 2 mg

Q: And the “TGI (tumor weight)” value ([2]; 0.5 mg/kg)?
A: 97%

Q: What about the “relative tumor volume (x ± S)” value [2, 5] of the same molecule?
A: 0.14 ± 0.02

Q: And the “tumor volume (x ± S)” value [2, 5]?
A: 22 mm^3 and 22 ± 3 mm^3

Q: What about the T/C ([2]; 5 mg/kg) of the same molecule?
A: 1%

Q: What about the “TGI (relative tumor inhibition rate)” value ([2]; 5 mg/kg) of the same molecule?
A: 99%

Q: What about the “Tumor weight (x ± s)” value ([2]; 5 mg/kg) of the same molecule?
A: 31 ± 3 mg

Q: What about the “TGI (tumor weight)” value ([2]; 5 mg/kg) of the same molecule?
A: 98%

Q: What about the IC50 (c-Met kinase) of the same molecule?
A: 0.33 nM
